Measured values: patent US7767240B2, “Microbiological control in poultry processing” (priority 2001, dated 2010)

Assays:
Escherichia coli = assay: AOAC test method, kill of bacterial culture; format: cell-based
Procedure: (§1) One such series of tests involved determinations of microbiological control against Escherichia coli bacteria. Another set of tests involved determinations of microbiological control against Enterococcus faecium. In each case, comparative tests were carried out in the same manner utilizing the AOAC test method. Such test involves exposing a culture of the microorganism to various concentrations of a test solution prepared from an aqueous stock solution of the compound under test. At various time intervals the halogen in the test suspensions is chemically neutralized, and the amount of viable bacteria remaining is enumerated by plating onto nutrient agar and incubating for 2 days at 37° C. Results are expressed at the log10 colony forming units (CFU). The concentration of the compound required to achieve complete kill (i.e., no viable bacteria remain) within 30 seconds is determined in the test.
Table 43 summarizes the data obtained in the tests using respectively, 1,3-dibromo-5,5-dimethylhydantoin (DBDMH) and N,N′-bromochloro-5,5-dimethylhydantoin (BCDMH) and in which the microorganism in each case was Escherichia coli. It can be seen that 1,3-dibromo-5,5-dimethylhydantoin passed the test at one milligram of bromine, as […] per liter of water, as evidenced by the complete kill within 30 seconds, whereas 1,3-bromochloro-5,5-dimethylhydantoin required two milligrams of bromine, as Br2, per liter of water to achieve complete kill within 30 seconds.

Enterococcus faecium = assay: AOAC test method, kill of bacterial culture; format: cell-based
Procedure: as §1
Table 44 summarizes the data obtained in the tests using respectively 1,3-dibromo-5,5-dimethylhydantoin (DBDMH) and N,N-bromochloro-5,5-dimethylhydantoin (BCDMH) and in which the microorganism in each case was Enterococcus faecium.

[1] = tested on: Pseudomonas aeruginosa (ATCC 15442) biofilm; assay: MBEC biofilm eradication test (Calgary biofilm device); format: cell-based; conditions: one-hour biocide contact time
Text: Table 45 summarizes test results performed at MBEC Biofilm Technologies, Inc., Calgary, Canada on the effectiveness of various biocides on biofilm removal. The test procedure, developed at the University of Calgary, utilizes a device which allows the growth of 96 identical biofilms under carefully controlled conditions. The device consists of a two-part vessel comprised of an upper plate containing 96 pegs that seals against a bottom plate. The bottom plate can consist of either a trough (for biofilm growth) or a standard 96-well plate (for biocide challenge). The biofilms develop on the 96 pegs. The device has been used as a general method for evaluating the efficacy of antibiotics and biocides towards biofilms. See in this connection H. Ceri, et al., “The MBEC Test: A New In Vitro Assay Allowing Rapid Screening for Antibiotic Sensitivity of Biofilm”, Proceedings of the ASM, 1998, 89, 525; Ceri, et al., “Antifungal and Biocide Susceptibility testing of Candida Biofilms using the MBEC Device”, Proceedings of the Interscience Conference on Antimicrobial Agents and Chemotherapy, 1998, 38, 495; and H. Ceri, et al., “The Calgary Biofilm Device: A New Technology for the Rapid Determination of Antibiotic Susceptibility of Bacterial Biofilms”, Journal of Clinical Microbiology, 1999, 37, 1771-1776.
Six biocide systems were evaluated using the above test procedure and test equipment. Five of these systems were oxidizing biocides, viz., chlorine (from NaOCl), halogen (from NaOCl+NaBr), halogen (from BCDMH), bromine (from DBDMH), and chlorine (from trichloroisocyanuric acid), all expressed as bromine as Br2 in mg/L, so that all test results were placed on the same basis. The sixth biocide was glutaraldehyde, a non-oxidizing biocide.
These biocide systems were used to challenge biofilms of Pseudomonas aeruginosa (ATCC 15442). This is a Gram (−) bacterium which is ubiquitous in microbiological slimes found in many water systems. See in this connection J. W. Costerton and H. Anwar, “Pseudomonas aeruginosa: The Microbe and Pathogen”, in Pseudomonas aeruginosa Infections and Treatment, A. L. Baltch and R. P. Smith editors, Marcel Dekker publishers, New York, 1994. In the field of poultry processing, S. Notermans, J. Dormans, and G. C. Mead, Biofouling, 1991, Vol. 5, pages 21-36, report observation of biofilms in poultry slaughter houses by use of scanning electron microscopy.
In Table 45 the MBEC (minimum biofilm eradication concentration) results presented are for the one-hour biocide contact time used in the test. The values given for the halogen containing biocides are expressed in terms of mg/L of bromine as Br2. The data on the glutaraldehyde is in terms of mg/L as active ingredient. […] In fact, only slightly more than one-half as much bromine from DBDMH was required to remove the biofilm as compared to the total halogen, expressed as Br2, that was required from BCDMH.

[2] = format: physicochemical
Text: Another mode of applying the microbiocidally-effective amounts of solid-state microbiocides of these embodiments of the invention is to cause the microbiocide to be leached into water streams passing through conduits and into tanks or other washing devices utilized in the processing of the poultry. For example, suitable solid forms of the microbiocide, preferably a bromine-based microbiocide, such as tablets, briquettes, pellets, nuggets, or granules are placed in suitable feeding devices through which a stream of water is passed. The passage of the water through the bed of the microbiocide results in the stream continuously dissolving small quantities of the microbiocide to thereby provide microbiocidally effective amounts of the microbiocide in the water. 1,3-Dibromo-5,5-dimethylhydantoin is especially preferred for use in this mode of application because of its relatively low solubility and thus relatively slow rate of dissolution in water at ambient room temperatures. This translates into relatively long periods of use before need of refilling the device holding the solids.

[3] = 0.5 mg/L as Br2, contact time 30 sec
[4] = 0.5 mg/L as Br2, contact time 1 min
[5] = 0.5 mg/L as Br2, contact time 2 min
[6] = 0.5 mg/L as Br2, contact time 3 min
[7] = 0.5 mg/L as Br2, contact time 4 min
[8] = 0.5 mg/L as Br2, contact time 5 min
[9] = 0.5 mg/L as Br2, contact time 10 min
[10] = 1.0 mg/L as Br2, contact time 30 sec
[11] = 1.0 mg/L as Br2, contact time 1 min
[12] = 1.0 mg/L as Br2, contact time 2 min
[13] = 1.0 mg/L as Br2, contact time 3 min
[14] = 1.0 mg/L as Br2, contact time 4 min
[15] = 1.0 mg/L as Br2, contact time 5 min
[16] = 1.0 mg/L as Br2, contact time 10 min
[17] = 2.0 mg/L as Br2, contact time 30 sec
[18] = 2.0 mg/L as Br2, contact time 1 min
[19] = 2.0 mg/L as Br2, contact time 2 min
[20] = 2.0 mg/L as Br2, contact time 3 min
[21] = 2.0 mg/L as Br2, contact time 4 min
[22] = 2.0 mg/L as Br2, contact time 5 min
[23] = 2.0 mg/L as Br2, contact time 10 min

## CC1(C)C(=O)N(Cl)C(=O)N1Br [BCDMH, N,N′-bromochloro-5,5-dimethylhydantoin]
Escherichia coli; [3]
  Log10 CFU Recovered: >4.48 Log10 CFU
Escherichia coli; [4]
  Log10 CFU Recovered: 4.46 Log10 CFU
Escherichia coli; [5]
  Log10 CFU Recovered: 1.65 Log10 CFU
Escherichia coli; [6]
  Log10 CFU Recovered: 0 Log10 CFU
Escherichia coli; [7]
  Log10 CFU Recovered: 0 Log10 CFU
Escherichia coli; [8]
  Log10 CFU Recovered: 0 Log10 CFU
Escherichia coli; [9]
  Log10 CFU Recovered: 0 Log10 CFU
Escherichia coli; [10]
  Log10 CFU Recovered: >4.48 Log10 CFU
Escherichia coli; [11]
  Log10 CFU Recovered: 0.7 Log10 CFU
Escherichia coli; [12]
  Log10 CFU Recovered: 0 Log10 CFU
Escherichia coli; [13]
  Log10 CFU Recovered: 0 Log10 CFU
Escherichia coli; [14]
  Log10 CFU Recovered: 0 Log10 CFU
Escherichia coli; [15]
  Log10 CFU Recovered: 0 Log10 CFU
Escherichia coli; [16]
  Log10 CFU Recovered: 0 Log10 CFU
Escherichia coli; [17]
  Log10 CFU Recovered: 0 Log10 CFU
Escherichia coli; [18]
  Log10 CFU Recovered: 0 Log10 CFU
Escherichia coli; [19]
  Log10 CFU Recovered: 0 Log10 CFU
Escherichia coli; [20]
  Log10 CFU Recovered: 0 Log10 CFU
Escherichia coli; [21]
  Log10 CFU Recovered: 0 Log10 CFU
Escherichia coli; [22]
  Log10 CFU Recovered: 0 Log10 CFU
Escherichia coli; [23]
  Log10 CFU Recovered: 0 Log10 CFU
Escherichia coli; Escherichia coli, AOAC test
  concentration required to achieve complete kill within 30 seconds: two
Enterococcus faecium; [3]
  Log10 CFU Recovered: >4.48 Log10 CFU
Enterococcus faecium; [4]
  Log10 CFU Recovered: 3.53 Log10 CFU
Enterococcus faecium; [5]
  Log10 CFU Recovered: 2.63 Log10 CFU
Enterococcus faecium; [6]
  Log10 CFU Recovered: 0.00 Log10 CFU
Enterococcus faecium; [7]
  Log10 CFU Recovered: 0.00 Log10 CFU
Enterococcus faecium; [8]
  Log10 CFU Recovered: 0.00 Log10 CFU
Enterococcus faecium; [9]
  Log10 CFU Recovered: 0.00 Log10 CFU
Enterococcus faecium; [10]
  Log10 CFU Recovered: >4.48 Log10 CFU
Enterococcus faecium; [11]
  Log10 CFU Recovered: 2.38 Log10 CFU
Enterococcus faecium; [12]
  Log10 CFU Recovered: 0.00 Log10 CFU
Enterococcus faecium; [13]
  Log10 CFU Recovered: 0.00 Log10 CFU
Enterococcus faecium; [14]
  Log10 CFU Recovered: 0.00 Log10 CFU
Enterococcus faecium; [15]
  Log10 CFU Recovered: 0.00 Log10 CFU
Enterococcus faecium; [16]
  Log10 CFU Recovered: 0.00 Log10 CFU
Enterococcus faecium; [17]
  Log10 CFU Recovered: 0.00 Log10 CFU
Enterococcus faecium; [18]
  Log10 CFU Recovered: 0.00 Log10 CFU
Enterococcus faecium; [19]
  Log10 CFU Recovered: 0.00 Log10 CFU
Enterococcus faecium; [20]
  Log10 CFU Recovered: 0.00 Log10 CFU
Enterococcus faecium; [21]
  Log10 CFU Recovered: 0.00 Log10 CFU
Enterococcus faecium; [22]
  Log10 CFU Recovered: 0.00 Log10 CFU
Enterococcus faecium; [23]
  Log10 CFU Recovered: 0.00 Log10 CFU
Enterococcus faecium; Enterococcus faecium, AOAC test
  concentration required to achieve complete kill within 30 seconds: two
[1]
  MBEC, avg.: 2.5 mg/L of bromine as Br2
[1]; individual determinations
  MBEC (minimum biofilm eradication concentration): 2.5, 2.5 mg/L of bromine as Br2
[2]
  solubility in water: 890 ppm expressed as Cl2
